Laboratory results published in patent US20150182667A1, “Composition with Biofilm Dispersal Agents” (Vanderbilt University, priority 2012, published 2015).
Like-named read-outs stand apart in the source and are kept apart here.

Experiments:
[1] = test system: planktonic S. aureus clinical strains (UAMS-1, 103-700); assay: MIC by CLSI broth microdilution, planktonic bacteria; type: cell-based, Staphylococcus aureus; conditions: Staphylococcus aureus, 18 h
Method: Overnight cultures of bacterial strains were diluted to a final concentration of 5×10^5 CFU/ml in MHB-II. The resulting bacterial suspension was aliquoted (100 μL) into polystyrene round-bottom 96-well plates containing 100 μL of a 2× concentration of a previously serially diluted (1:2) antibiotic. Each antimicrobial tested was serially diluted 10 times. Following the addition of bacteria, the microtiter plate was covered and was incubated under stationary conditions at 37° C. in the presence of 1× antibiotics. […] MICs of antibiotics were determined in triplicate according to the Clinical and Laboratory Standards Institute (CLSI) broth microdilution as described by the performance standards for antimicrobial susceptibility testing (M100-S22, January 2012).

[2] = test system: biofilm derived S. aureus clinical strains (UAMS-1, 103-700); assay: Biofilm susceptibility, Calgary Biofilm device (MBEC plates): MBIC and viable CFU; type: cell-based, Staphylococcus aureus; conditions: for Biofilm (MBIC) 103-700: S. aureus 103-700 48 h biofilm; for Biofilm (MBIC) 103-700 / Biofilm (MBIC) UAMS-1: 24 h challenge, * = with 5 mM D-AA; for Biofilm (MBIC) UAMS-1: S. aureus UAMS-1 48 h biofilm
Method: Biofilm susceptibility to antimicrobial agents in the presence and absence of D-AA was determined using the Calgary Biofilm device. Briefly, biofilms from overnight cultures were established as above on individual pegs of the minimum biofilm eradication concentration (MBEC) plates (Innovotech, Canada) with agitation for 48 h at 37° C. Following incubation, the lid with pegs was removed from the incubation plate, washed by re-suspending pegs into plate with wells containing 200 μl of 1×PBS, then placed into a 96-well challenge plate containing pre-diluted antibiotics with or without an […] for an additional 24 h at 37° C. Following challenge plates were washed, and the attached viable cells on PEGs within the biofilm were determined by plating serial dilutions onto blood agar plates (Remel). Corresponding minimal biofilm inhibitory concentration (MBIC) was also determined by measuring the optical density in individual wells of the challenge plate at 600 nm. The lowest concentration of antibiotic for which an optical density of <0.100 was recorded as the MBIC. For each antibiotic, the MBIC was determined in the presence or absence of a mixture of D-AA (D-Phenylalanine, D-Methionine, and D-Tryptophan) at an equimolar concentration of 5 mM. Three independent experiments were performed for each of these assays, with a minimum of 3 replicates.

[3] = test system: S. aureus clinical isolates biofilms; assay: Biofilm dispersal and prevention, crystal violet assay (Example 3); type: cell-based
Method: Like in Example 1, biofilm formation was assessed under static conditions using polystyrene 96-well plates (Corning, Inc.). Overnight bacterial cultures were diluted to an OD600 of 0.1 in TSB (˜10^7 CFU/mL), and 20 μL were added to individual wells filled with 180 μL of media and incubated at 37° C. for 48 h. To assess the biofilm dispersal activity of D-AAs, the culture medium from biofilms was removed after 48 h and 200 μL fresh medium containing either an individual D-AA or an equimolar mixture of D-AAs (1:1:1: D-Met:D-Pro:D-Trp) were added at the indicated concentrations. After treatment with D-AA(s) for 24 h, plates were gently washed with 1× phosphate buffered saline (PBS) to remove unattached cells, stained with 0.1% (w/v) crystal violet (Sigma Aldrich) for 10 min, rinsed with PBS, and then solubilized with 80% (v/v) ethanol. Biofilm biomass was determined by measuring the absorbance of solubilized stain at 570 nm using a microtiter plate reader. For assays measuring the ability of D-AA to block biofilm formation, cells were grown under biofilm conditions as above in the presence of media containing D-AAs. Representative images of the plates of CV-stained biofilms following treatment with D-AA prior to solubilization were taken using a digital camera. All assays were repeated in triplicate with a minimum of four technical replicates.

[4] = test system: P. aeruginosa clinical isolate biofilms; assay: Biofilm dispersal and prevention, crystal violet 96-well assay (Example 1); type: cell-based, Pseudomonas aeruginosa; conditions: 5 mM
Method: (§1) Biofilm formation was performed under static conditions in polystyrene 96-well plates (Corning, Inc., Corning, N.Y.). Briefly, overnight bacterial cultures were diluted to an OD600 of 0.1 in CA-MHB and 10 μL was added to individual wells filled with 190 μl of media and incubated at 37° C. for 48 h without shaking for biofilm growth. Following incubation, culture media was removed and 200 μL media containing individual D-AA at concentrations of 5 mM-1 nM was added. Plates were incubated for an additional 24 h at 37° C. After treatment, plates were gently washed with 1× phosphate buffered saline (PBS; pH 7.4) to remove non-adherent bacteria. Biofilms (i.e. attached cells) were then stained with 0.1% (w/v) crystal violet for 10 min, washed, followed by solubilization of crystal violet with 33% (v/v) acetic acid for 10 min. Biofilm biomass was determined by measuring the absorbance at 570 nm using a microtiter plate reader. For assays measuring the ability of D-AA to block biofilm formation, cells were grown under biofilm conditions as above in the presence of media containing D-AA. Three independent experiments with a minimum of 4 replicates were performed for each experimental assay. Representative images of the plates of CV stained biofilms following treatment with D-AA, prior to solubilization, were taken using a digital camera.

[5] = test system: S. aureus clinical isolate biofilms; assay: as above; type: cell-based, Staphylococcus aureus; conditions: 5 mM
Method: as §1

[6] = S. aureus 103-700, agents marked * in combination with equimolar 5 mM D-AA, read-out: Planktonic (MIC) 103-700
[7] = S. aureus UAMS-1, agents marked * in combination with equimolar 5 mM D-Phenylalanine, D-Tryptophan, D-Methionine, read-out: Planktonic (MIC) UAMS-1

Row | SMILES | MIC [1, 6] [µg/mL] | MIC [1, 7] [µg/mL] | Biofilm (MBIC) 103-700 [2] [µg/mL] | Biofilm (MBIC) UAMS-1 [2] [µg/mL] | % Decrease + SD in CFU, 8 μg/mL ([2]; S. aureus UAMS-1 biofilm, antibiotic 8 μg/mL) [%] | % Decrease + SD in CFU, 16 μg/mL ([2]; S. aureus UAMS-1 biofilm, antibiotic 16 μg/mL) [%] | % Decrease + SD in CFU, 32 μg/mL ([2]; S. aureus UAMS-1 biofilm, antibiotic 32 μg/mL) [%] | % Decrease + SD in CFU, 64 μg/mL ([2]; S. aureus UAMS-1 biofilm, antibiotic 64 μg/mL, vs non-treated biofilms) [%] | dispersal of established biofilms (biofilm biomass) ([3]; panel of clinical isolates of methicillin-resistant S. aureus (n=5), 5 mM, 24 h, FIGS. 8A, 8C) | biofilm dispersal in pre-screening of eight individual D-AAs ([3]; pre-formed biofilms of four clinical isolates, 0.001-50 mM, FIG. 7) | biofilm dispersal against panel of clinical isolates (biofilm biomass OD570) ([4]; P. aeruginosa clinical isolates, FIGS. 3A, 3C) | biofilm dispersal in pre-screening of eight D-AAs ([4]; pre-formed P. aeruginosa biofilms, FIG. 1) | biofilm dispersal against panel of clinical isolates (biofilm biomass OD570) ([5]; S. aureus clinical isolates, FIGS. 3A, 3C) | biofilm dispersal in pre-screening of eight D-AAs ([5]; pre-formed S. aureus biofilms, FIG. 1)
1 | Cc1nnc(SCC2=C(C(=O)O)N3C(=O)[C@@H](NC(=O)Cn4cnnn4)[C@H]3SC2)s1 [CFZ, Cefazolin] | 16 | 0.5 | >128 | >128 | – | – | – | – | – | – | – | – | – | –
2 | CCC[C@@H]1C[C@@H](C(=O)N[C@@H]([C@H]2O[C@H](SC)[C@H](O)[C@@H](O)[C@H]2O)[C@H](C)Cl)N(C)C1 [CLI, Clindamycin] | 0.5 | 0.5 | >64 | 64 | 1.8 ± 1.0 | 9.3 ± 1.8 | 32.86 ± 4.3 | 66.0 ± 3.4 | – | – | – | – | – | –
3 | N[C@H](Cc1ccccc1)C(=O)O [D-Phe, D-phenylalanine] | – | – | – | – | – | – | – | – | effective at dispersing established biofilms | effective at dispersing biofilms | capable of significantly dispersing biofilm formation | relatively more effective at dispersing biofilms | capable of significantly dispersing biofilm formation | relatively more effective at dispersing biofilms
